# According to PubChem BioAssay (NCI):
#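 Tested at 5 concentrations; 48 h exposure; 96-well plates; endpoints linearly interpolated, else capped at highest concentration. The concentration for full growth arrest is given as TGI.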
# Assays:
# Assay in all cases: NCI-60 cell line screen, 48 h
# [1] = tested on: SK-MEL-5 melanoma
# [2] = tested on: ACHN renal
# [3] = tested on: NCI-H460 lung
# [4] = tested on: HCC-2998 colon
# [5] = tested on: DLD-1 colon
# [6] = tested on: IGROV1 ovarian
# [7] = tested on: HOP-62 NSCLC
# [8] = tested on: KM20L2 colon
# [9] = tested on: M19-MEL melanoma
# [10] = tested on: SF-295 CNS
# [11] = tested on: MOLT-4 leukemia
# [12] = tested on: OVCAR-3 ovarian
# [13] = tested on: LOX IMVI melanoma
# [14] = tested on: 786-0 renal
# [15] = tested on: COLO 205 colon
# [16] = tested on: DMS 273 small cell lung
# [17] = tested on: RPMI-8226 leukemia
# [18] = tested on: SNB-75 CNS
# [19] = tested on: SK-MEL-28 melanoma
# [20] = tested on: HT29 colon
# [21] = tested on: CAKI-1 renal
# [22] = tested on: OVCAR-8 ovarian
# [23] = tested on: SNB-19 CNS
# [24] = tested on: NCI-H226 lung
# [25] = tested on: SNB-78 CNS
# [26] = tested on: RXF 393 renal
# [27] = tested on: SK-OV-3 ovarian
# [28] = tested on: TK-10 renal
# [29] = tested on: K-562 leukemia
# [30] = tested on: U251 CNS
# [31] = tested on: KM12 colon
# [32] = tested on: SR leukemia
# [33] = tested on: UACC-62 melanoma
# [34] = tested on: HOP-92 NSCLC
# [35] = tested on: LXFL 529 NSCLC
# [36] = tested on: NCI-H23 lung
# [37] = tested on: HOP-18 NSCLC
# [38] = tested on: UO-31 renal
# [39] = tested on: M14 melanoma
# [40] = tested on: A549 NSCLC
# [41] = tested on: MALME-3M melanoma
# [42] = tested on: DMS 114 small cell lung
# [43] = tested on: UACC-257 melanoma
# [44] = tested on: HCT-116 colon
# [45] = tested on: SF-539 CNS
# [46] = tested on: OVCAR-5 ovarian
# [47] = tested on: CCRF-CEM leukemia
# [48] = tested on: SW-620 colon
# [49] = tested on: SN12C renal
# [50] = tested on: A498 renal
# [51] = tested on: HCT-15 colon
# [52] = tested on: HL-60(TB) leukemia
# [53] = tested on: OVCAR-4 ovarian
# [54] = tested on: SF-268 CNS
# [55] = tested on: SK-MEL-2 melanoma
# [56] = tested on: NCI-H522 lung
# [57] = tested on: EKVX NSCLC
smiles,measurement,setting,value
COC(=O)C1[C@@H](C(=O)OC)C(=O)O[C@H]1c1cc(OC)c(OC)c(OC)c1 (stereo partly specified),TGI,[1],> 100 µM
same,TGI,[2],> 100 µM
same,TGI,[3],> 100 µM
same,TGI,[4],> 100 µM
same,TGI,[5],> 100 µM
same,TGI,[6],> 100 µM
same,TGI,[7],> 100 µM
same,TGI,[8],> 100 µM
same,TGI,[9],> 100 µM
same,TGI,[10],> 100 µM
same,TGI,[11],> 100 µM
same,TGI,[12],> 100 µM
same,TGI,[13],> 100 µM
same,TGI,[14],> 100 µM
same,TGI,[15],> 100 µM
same,TGI,[16],> 100 µM
same,TGI,[17],> 100 µM
same,TGI,[18],> 100 µM
same,TGI,[19],> 100 µM
same,TGI,[20],> 100 µM
same,TGI,[21],> 100 µM
same,TGI,[22],> 100 µM
same,TGI,[23],> 100 µM
same,TGI,[24],> 100 µM
same,TGI,[25],> 100 µM
same,TGI,[26],> 100 µM
same,TGI,[27],> 100 µM
same,TGI,[28],> 100 µM
same,TGI,[29],> 100 µM
same,TGI,[30],> 100 µM
same,TGI,[31],> 100 µM
same,TGI,[32],> 100 µM
same,TGI,[33],> 100 µM
same,TGI,[34],> 100 µM
same,TGI,[35],> 100 µM
same,TGI,[36],> 100 µM
same,TGI,[37],> 100 µM
same,TGI,[38],> 100 µM
same,TGI,[39],> 100 µM
same,TGI,[40],> 100 µM
same,TGI,[41],> 100 µM
same,TGI,[42],> 100 µM
same,TGI,[43],> 100 µM
same,TGI,[44],> 100 µM
same,TGI,[45],> 100 µM
same,TGI,[46],> 100 µM
same,TGI,[47],> 100 µM
same,TGI,[48],> 100 µM
same,TGI,[49],> 100 µM
same,TGI,[50],> 100 µM
same,TGI,[51],> 100 µM
same,TGI,[52],> 100 µM
same,TGI,[53],> 100 µM
same,TGI,[54],> 100 µM
CC(=O)Nc1ccc(-c2nnc(SCC(=O)Nc3ccccc3)o2)cc1,TGI,[1],> 100 µM
same,TGI,[2],> 100 µM
same,TGI,[3],> 100 µM
same,TGI,[5],> 100 µM
same,TGI,[6],> 100 µM
same,TGI,[7],> 100 µM
same,TGI,[8],> 100 µM
same,TGI,[9],> 100 µM
same,TGI,[10],> 100 µM
same,TGI,[11],> 100 µM
same,TGI,[12],> 100 µM
same,TGI,[13],> 100 µM
same,TGI,[14],> 100 µM
same,TGI,[15],> 100 µM
same,TGI,[16],> 100 µM
same,TGI,[17],> 100 µM
same,TGI,[18],> 100 µM
same,TGI,[19],> 100 µM
same,TGI,[20],> 100 µM
same,TGI,[21],> 100 µM
same,TGI,[22],> 100 µM
same,TGI,[24],> 100 µM
same,TGI,[25],> 100 µM
same,TGI,[26],> 100 µM
same,TGI,[27],> 100 µM
same,TGI,[28],> 100 µM
same,TGI,[29],> 100 µM
same,TGI,[30],> 100 µM
same,TGI,[31],> 100 µM
same,TGI,[32],> 100 µM
same,TGI,[33],> 100 µM
same,TGI,[34],> 100 µM
same,TGI,[35],> 100 µM
same,TGI,[36],> 100 µM
same,TGI,[37],> 100 µM
same,TGI,[38],> 100 µM
same,TGI,[39],> 100 µM
same,TGI,[55],> 100 µM
same,TGI,[40],> 100 µM
same,TGI,[56],> 100 µM
same,TGI,[41],> 100 µM
same,TGI,[42],> 100 µM
same,TGI,[43],> 100 µM
same,TGI,[44],> 100 µM
same,TGI,[45],> 100 µM
same,TGI,[46],> 100 µM
same,TGI,[47],> 100 µM
same,TGI,[48],> 100 µM
same,TGI,[49],> 100 µM
same,TGI,[51],> 100 µM
same,TGI,[52],> 100 µM
same,TGI,[53],> 100 µM
same,TGI,[54],> 100 µM
CCC1=C(C(C)=O)[C@@H]2CCCCC(C(=O)OC)[C@@H]2C1=O (stereo partly specified),TGI,[1],> 100 µM
same,TGI,[2],> 100 µM
same,TGI,[3],> 100 µM
same,TGI,[4],> 100 µM
same,TGI,[5],> 100 µM
same,TGI,[6],> 100 µM
same,TGI,[7],> 100 µM
same,TGI,[8],> 100 µM
same,TGI,[9],> 100 µM
same,TGI,[10],> 100 µM
same,TGI,[11],> 100 µM
same,TGI,[14],> 100 µM
same,TGI,[15],> 100 µM
same,TGI,[16],> 100 µM
same,TGI,[17],> 100 µM
same,TGI,[18],> 100 µM
same,TGI,[19],> 100 µM
same,TGI,[20],> 100 µM
same,TGI,[21],> 100 µM
same,TGI,[22],> 100 µM
same,TGI,[23],> 100 µM
same,TGI,[24],> 100 µM
same,TGI,[25],> 100 µM
same,TGI,[26],> 100 µM
same,TGI,[27],> 100 µM
same,TGI,[28],> 100 µM
same,TGI,[29],> 100 µM
same,TGI,[30],> 100 µM
same,TGI,[57],> 100 µM
same,TGI,[31],> 100 µM
same,TGI,[33],> 100 µM
same,TGI,[34],> 100 µM
same,TGI,[35],> 100 µM
same,TGI,[36],> 100 µM
same,TGI,[37],> 100 µM
same,TGI,[38],> 100 µM
same,TGI,[39],> 100 µM
same,TGI,[55],> 100 µM
same,TGI,[40],> 100 µM
same,TGI,[56],> 100 µM
same,TGI,[41],> 100 µM
same,TGI,[42],> 100 µM
same,TGI,[43],> 100 µM
same,TGI,[44],> 100 µM
same,TGI,[45],> 100 µM
same,TGI,[46],> 100 µM
same,TGI,[47],> 100 µM
same,TGI,[48],> 100 µM
same,TGI,[49],> 100 µM
same,TGI,[50],> 100 µM
same,TGI,[51],> 100 µM
same,TGI,[52],> 100 µM
same,TGI,[53],> 100 µM
same,TGI,[54],> 100 µM
CN(C)CC/C(=N\Nc1ccc(Cl)cc1)c1ccccc1,TGI,[1],3.27 µM
same,TGI,[2],2.59 µM
same,TGI,[3],2.45 µM
same,TGI,[5],3.74 µM
same,TGI,[6],4.67 µM
same,TGI,[7],3.62 µM
same,TGI,[8],0.349 µM
same,TGI,[9],3.2 µM
same,TGI,[10],1.25 µM
same,TGI,[11],10.2 µM
same,TGI,[12],3.15 µM
same,TGI,[13],0.691 µM
same,TGI,[14],3.88 µM
same,TGI,[15],3.27 µM
same,TGI,[16],1.61 µM
same,TGI,[17],3.13 µM
same,TGI,[18],6.45 µM
same,TGI,[19],2.92 µM
same,TGI,[20],3 µM
same,TGI,[22],11.5 µM
same,TGI,[23],6.91 µM
same,TGI,[25],5.13 µM
same,TGI,[26],10.3 µM
same,TGI,[27],7.04 µM
same,TGI,[28],2.32 µM
same,TGI,[29],1.03 µM
same,TGI,[30],1.74 µM
same,TGI,[57],4.35 µM
same,TGI,[31],2.93 µM
same,TGI,[32],4.4 µM
same,TGI,[33],2.07 µM
same,TGI,[35],0.373 µM
same,TGI,[36],3.93 µM
same,TGI,[37],7.78 µM
same,TGI,[38],0.986 µM
same,TGI,[39],3.17 µM
same,TGI,[55],4.58 µM
same,TGI,[40],3.29 µM
same,TGI,[56],3.78 µM
same,TGI,[41],3.95 µM
same,TGI,[42],4.45 µM
same,TGI,[43],3.35 µM
same,TGI,[44],2.6 µM
same,TGI,[45],3.65 µM
same,TGI,[46],2.66 µM
same,TGI,[47],11.2 µM
same,TGI,[48],2.37 µM
same,TGI,[49],4.13 µM
same,TGI,[50],10.8 µM
same,TGI,[51],1.23 µM
same,TGI,[52],2.17 µM
same,TGI,[53],7.05 µM
same,TGI,[54],3.67 µM
Nc1nc(N)c2ncn(CCCC(c3ccccc3)P(=O)(O)O)c2n1 (stereo unspecified),TGI,[1],> 100 µM
same,TGI,[2],> 100 µM
same,TGI,[3],> 100 µM
same,TGI,[4],> 100 µM
same,TGI,[5],> 100 µM
same,TGI,[6],> 100 µM
same,TGI,[7],> 100 µM
same,TGI,[8],> 100 µM
same,TGI,[9],> 100 µM
same,TGI,[10],> 100 µM
same,TGI,[12],> 100 µM
same,TGI,[13],> 100 µM
same,TGI,[14],> 100 µM
same,TGI,[15],> 100 µM
same,TGI,[16],> 100 µM
same,TGI,[17],> 100 µM
same,TGI,[18],> 100 µM
same,TGI,[19],> 100 µM
same,TGI,[20],> 100 µM
same,TGI,[21],> 100 µM
same,TGI,[22],> 100 µM
same,TGI,[23],> 100 µM
same,TGI,[25],> 100 µM
same,TGI,[27],> 100 µM
same,TGI,[28],> 100 µM
same,TGI,[29],> 100 µM
same,TGI,[30],> 100 µM
same,TGI,[31],> 100 µM
same,TGI,[32],> 100 µM
same,TGI,[33],> 100 µM
same,TGI,[34],> 100 µM
same,TGI,[35],> 100 µM
same,TGI,[36],36 µM
same,TGI,[37],> 100 µM
same,TGI,[38],> 100 µM
same,TGI,[39],> 100 µM
same,TGI,[55],> 100 µM
same,TGI,[40],> 100 µM
same,TGI,[56],> 100 µM
same,TGI,[41],> 100 µM
same,TGI,[42],> 100 µM
same,TGI,[43],> 100 µM
same,TGI,[44],> 100 µM
same,TGI,[45],> 100 µM
same,TGI,[46],> 100 µM
same,TGI,[47],> 100 µM
same,TGI,[48],> 100 µM
same,TGI,[49],> 100 µM
same,TGI,[50],> 100 µM
same,TGI,[51],> 100 µM
same,TGI,[52],> 100 µM
same,TGI,[54],> 100 µM
